Laboratory results published in US6982277B2, “P53 inhibitors and therapeutic use of the same” (The Board of Trutees of the University of Illinois, priority 1999, dated 2006).
Entries after “also recorded” stand apart in the source; their conditions may differ.

How the values were obtained:
[1] = stability and water solubility of the isolated compound; assay type: physicochemical
Experimental: A solution of compound A (1.54 g, 10 mmol) and para-methylphenacyl bromide (2.34 g, 11 mmol) in 50 ml of benzene was prepared, then stirred at room temperature for 48 hours. Product (V) (a compound of structural formula (I) where X=S and n=1) precipitated from the reaction mixture, was filtered, and then washed with benzene to yield 2.42 g (66% yield) of the compound of structural formula (V).

[2] = system: mouse embryo fibroblasts transformed with Ela+ras, line C8; experiment: p53-dependent apoptosis of C8 cells (crystal violet staining of surviving cells); assay type: cell-based
Experimental: (§1) Then, a p53 inhibitor was applied in a concentration of 1 μM to 20 μM to the test cells in the presence of the p53 activator. Cytotoxicity of the p53 inhibitors also was determined by standard assays. An estimation of antiapoptotic activity of the p53 inhibitor compounds was based on an ability to suppress apoptotic cell death in standard cell systems sensitive to p53-dependent apoptosis (i.e., mouse embryonic fibroblasts transformed with Ela+ras, line C8, described by S. W. Lowe et al., Cell, 74, pp. 957–968 (1993)). p53 dependence of the compound activity was analyzed by testing its effect on p53-deficient cells (i.e., radiosensitivity or drug sensitivity of p53−/− mouse embryonic fibroblasts transformed with Ela+ras, line A4, described by Lowe et al., 1993).
FIG. 3 illustrates that pifithrin-alpha suppresses p53-dependent apoptosis caused by doxorubicin. Equal numbers of mouse embryo fibroblasts transformed with El+ras (line C8, highly sensitive to p53-dependent apoptosis) were plated in the wells of 6-well plates containing 0, 0.4, and 0.8 μg/ml of doxorubicin, treated with DMSO and PFT-α (10 μM) for 48 hours, fixed with methanol, and stained with crystal violet, followed by elution of the dye with 1% SDS. Optical density ([…]) was determined using a BioTek EL311 microplate reader. The intensity of staining reflects the number of surviving cells. […]

p53 [3] = experiment: gel shift assay of p53 DNA binding with ConA cell lysates; assay type: cell-based, mouse; details: untreated or UV-irradiated ConA cells
Experimental: (§2) FIG. 6(d) illustrates that PFT-α changes the nuclear and cytoplasmic distribution of p53. Nuclear and cytoplasmic fractions were isolated from UV-treated ConA cells 6 hours after UV irradiation. p53 and p21^waf1 proteins were detected by immunoblotting. […] In particular, results of a gel shift assay using cell lysates from either untreated or UV-irradiated ConA cells grown in medium containing PFT-α are shown. […] The decline in the amount of bound DNA is proportional to the overall decrease in p53 content in the presence of PFT-α.

p53-responsive genes = experiment: Northern blots of p53-responsive genes in UV-treated ConA cells; assay type: cell-based, mouse; set-up: dose or concentration left out as unconfirmed; details: UV 25 J/m^2, 8 hours; PFT-α
Experimental: FIG. 2(b) contains Northern blots of RNA from ConA cells as follows: u/t, untreated; PFT, incubated for 8 hours with […] of PFT-α; UV, 8 hours after UV treatment (25 J/m^2); UV+PFT, a combination of PFT treatment ([…]) and UV treatment.

p53 [4] = experiment: p53 protein in UV-irradiated ConA cells (immunoblotting, two-dimensional gel, nuclear and cytoplasmic fractions); assay type: cell-based, mouse
Experimental: PFT-α was added to the cells before UV treatment and total cell lysates were prepared 18 hours later.
as §2

p53-deficient cells (A4) = experiment: radiosensitivity or drug sensitivity of p53-deficient A4 cells; assay type: cell-based, mouse
Experimental: as §1

C8 cells = experiment: C8 cell survival after UV irradiation by time and duration of application (MTT assay); assay type: cell-based, mouse; details: 10 μM; UV 25 J/m^2; MTT 48 hours after UV
Experimental: FIG. 11 includes a comparison of anti-apoptotic effect of PFT-α added at different time intervals to C8 cells treated with UV radiation. (25 J/m^2). Ten μM of PFT-α were added to the culture media at different time intervals (FIG. 11(a)).

Cc1ccc(C(=O)Cn2c3c(sc2=N)CCCC3)cc1 [PFT-α, 2-[2-imino-4,5,6,7-tetrahydro-1,3-benzothiazol-3(2H)-yl]-1-(4-methylphenyl)-1-ethanone]
stability, water solubility [1]: stable, water-soluble | apoptotic death of C8 cells induced by doxorubicin ([2]; 10 μM, 48 hours, 0.4 and 0.8 μg/ml doxorubicin): inhibited apoptotic death of C8 cells induced by doxorubicin | p53-dependent apoptosis caused by other stresses ([2]; etoposide, taxol, cytosine arabinoside, UV light, gamma radiation): suppresses p53-dependent apoptosis caused by etoposide, taxol, cytosine arabinoside, UV light, and gamma radiation | DNA-binding activity of p53 (p53 [3]): does not affect DNA-binding activity of p53 | UV-induced transactivation of p53-responsive genes (p53-responsive genes): inhibits UV-induced transactivation of cyclin G, p21/waf1, mdm2, and GAPDH | p53 accumulation after UV treatment (immunoblotting) (p53 [4]; 0, 10, 20, and 30 μM, lysates 18 hours after UV): partially, and in a dose-dependent manner, inhibits p53 accumulation | nuclear and cytoplasmic distribution of p53 (p53 [4]; 6 hours after UV irradiation): significantly decreased; also recorded: slightly lowered the levels of nuclear, but not cytoplasmic, p53; also recorded: reduce nuclear accumulation of p53 | nuclear-cytoplasmic ratio of p21^waf1 (p53 [4]; 6 hours after UV irradiation): did not affect the nuclear-cytoplasmic ratio | phosphorylation / post-translational modifications of p53 (p53 [4]; after DNA-damaging treatments): did not alter phosphorylation or sequence-specific DNA binding of p53; also recorded: do not effect either post-translational modifications of p53 or the DNA binding affinity of p53 | protection of p53-deficient cells from gamma radiation (p53-deficient cells (A4)): does not protect p53-deficient cells (A4) from radiation | toxicity to p53-deficient cells treated with taxol and AraC (p53-deficient cells (A4)): selective toxicity of pifithrin-alpha to p53-deficient cells treated with taxol and AraC | radiosensitivity of p53-deficient cells (p53-deficient cells (A4); 20 μM): potentiates radiosensitivity of p53-deficient cells | protective effect, 3-hour incubation after UV treatment (C8 cells): pronounced protective effect | protective effect, 24-hour incubation (C8 cells): maximal protection | protective effect, administered before (up to 18 hours) and removed immediately before UV (C8 cells): little to no protective effect | rescue from apoptosis, administered three hours after UV irradiation (C8 cells): did not rescue UV-irradiated cells from apoptosis
